Measured values taken from article PMC9394307, “Discovery of Putative Dual Inhibitor of Tubulin and EGFR by Phenotypic Approach on LASSBio-1586 Homologs” (Pharmaceuticals, 2022).
Read-outs that look alike come from different tables or passages of the source.

Assays:
[1] = tested on: EGFR in PC-9 cell line (EGFR^L858R); assay: Guava Muse EGFR-RTK Activation Dual Detection Kit, flow cytometry; type: cell-based, human
Protocol: (§1) Flow cytometry was applied to help elucidate the mechanism of action of the studied compounds, both to verify the cell cycle phase and to verify the action on EGFR protein kinase.
(§2) The anti-tubulin effect was evaluated by seeding H1975, H292 and PC-9 into 6-well plates at a density of 2 × 10^5 per well. The cells were treated with the selected compounds for 72 h. Cells were harvested and stained according to the protocols of The Guava Muse® Cell Cycle Kit (MCH100106) to quantitatively measure the percentage of cells in the G2/M phases of the cell cycle and the EGFR-RTK Activation Dual Detection Kit (MCH200102) (Luminex®) to measure EGFR phosphorylation in relation to total EGFR expression in the cell population, according to the manufacturer’s instructions for use in test kits using a Guava Muse® Cell Analyzer (Luminex®). Each experiment was performed at least three times independently.

HL-60 = assay: MTT cell viability assay, HL-60; type: cell-based, human; details: Homo sapiens, read-out: CC50 (µM) (CI) HL-60
Protocol: (§3) The cytotoxic activity of compounds 3–13 was determined based on an MTT assay against different human tumor cell lines, using LASSBio-1586 (2), LASSBio-1735 (3), CA-4 (1) and pelitinib as standards (Table 2). To determine the cytotoxic selectivity index, compounds were also evaluated toward human lymphocytes (Table 3).
(§4) The target compounds were tested (0.0001–100 µM) for cytotoxic activity against selected human cancer cell lines, such as HL-60 (acute promyelocytic leukemia), MCF-7 (mammary adenocarcinoma), PC-3 (prostate adenocarcinoma), H1975 (non-small cell lung cancer—EGFR^L858R+T790M), PC-9 (non-small cell lung cancer—EGFR^L858R) H292 (mucoepidermoid pulmonary carcinoma—EGFR wild type), LoVo (colorectal adenocarcinoma—EGFRwild type) and GM16000 (lymphocyte). All the human cancer cell lines were purchased from Cell Bank of Rio de Janeiro—BCRJ. They were cultured in RPMI 1640 medium with 10% (v/v) FBS, 2 mM glutamine, at 37 °C in a humidified incubator containing 5% CO2.
(§5) The cytotoxicity of the compounds was evaluated by the MTT assay. […] For lymphocytic lines, a density of 0.3 × 10^6 cells/mL was used. Afterwards they were treated with varying concentrations of the target compounds 2–12 (0.0001–100 µM), CA-4 (1) and pelitinib at 37 °C, in triplicate. The medium was incubated with 20 μL of 5 mg/mL MTT solution for 3 h in a humidified incubator containing 5% CO2 [11].
(§6) The purple-colored formazan crystals formed in the wells were dissolved in DMSO and their absorbance was measured at 595 nm with a microplate reader (SpectraMax M5, Molecular Devices).

MCF-7 = assay: MTT cell viability assay, MCF-7; type: cell-based, human; details: Homo sapiens, MCF7, 72 h, read-out: CC50 (µM) (CI) MCF-7
Protocol: as §3, §4
(§7) The cytotoxicity of the compounds was evaluated by the MTT assay. The cell lines were cultured in 96 well plates for 72 h with a density of 0.1 × 10^5 cells/mL to 0.7 × 10^5 cells/mL to adherent cell lines. For lymphocytic lines, a density of 0.3 × 10^6 cells/mL was used. Afterwards they were treated with varying concentrations of the target compounds 2–12 (0.0001–100 µM), CA-4 (1) and pelitinib at 37 °C, in triplicate. The medium was incubated with 20 μL of 5 mg/mL MTT solution for 3 h in a humidified incubator containing 5% CO2 [11].
as §6

PC-3 = assay: MTT cell viability assay, PC-3; type: cell-based; details: Homo sapiens, PC-3, 72 h, read-out: CC50 (µM) (CI) PC-3
Protocol: as §3, §4, §7, §6

H292 = assay: MTT cell viability assay, H292; type: cell-based, human; details: Homo sapiens, read-out: CC50 (µM) (CI) H292
Protocol: as §3, §4, §5, §6

H1975 = assay: MTT cell viability assay, H1975; type: cell-based, human; details: Homo sapiens, read-out: CC50 (µM) (CI) H1975
Protocol: as §3, §4, §5, §6

PC-9 = assay: MTT cell viability assay, PC-9; type: cell-based, human; details: Homo sapiens, read-out: CC50 (µM) (CI) PC-9
Protocol: as §3, §4, §5, §6

[2] = MTT cell viability assay, GM16000 lymphocytes; type: cell-based; details: human lymphocytes, value (95% CI)
H1975 cells [3] = assay: Immunofluorescence of β-tubulin / microtubules; type: cell-based, human; details: H1975, 48 h; CA-4 0.3 µM, vincristine 0.5 µM, taxol 0.1 µM, LASSBio-1586 10 µM, LASSBio-1735 0.5 µM, LASSBio-2070 4.5 µM, LASSBio-2074 20 µM
Protocol: Antitubulin agents have been broadly classified into destabilizing or stabilizing agents, based on their interference with the dynamic balance of polymerization or depolymerization of microtubules. […] CA-4 (1, 0.3 µM), vincristine (0.5 µM) and taxol (0.1 µM) were used as standard controls.
After incubation, cells were rinsed with PBS and fixed with 4% paraformaldehyde in PBS for 10 min at room temperature. They were then permeabilized with 0.5% Triton-X 100 in PBS 3 times for 10 min. The same solution was used for all subsequent washing steps. Cells were incubated with an anti-beta-tubulin antibody for 1 h at 37 °C. After incubation, cells were washed for 30 min and incubated with Alexa Fluor® 488, conjugated secondary antibody for 1 h at 37 °C, and nuclei were labeled with DAPI (0.1 mg/mL in 0.9% NaCl).
Live cultured cells grown in coverslips were mounted in Prolong Gold solution (Molecular Probes, USA) and were imaged on a Leica TCS SPE confocal microscope (Leica Microsystems, Germany) using 63x 1.3 N.A. oil immersion and the images acquired by the LAS X software. Cell morphology, focusing on the microtubules was analyzed, qualitatively, using the public domain NIH ImageJ Program (developed at the National Institutes of the USA Health and available on the internet at http://imagej.nih.gov/ij/ (accessed on 1 September 2021).

[4] = MTT cell viability assay, GM16000 lymphocytes; type: cell-based; details: human lymphocytes, value (95% CI); remark: listed apart in the source
Protocol: as §3
To establish the cytotoxic selective index (SI) of LASSBio-1586 homologs, they were studied on human lymphocyte cell lines (GM16000), using the MTT assay. The SI was calculated by the ratio between the CC50 on tumor and non-tumor cell lines. Although there is no consensus, values of SI ≥ 10 is considered satisfactory to assign safety to a new cytotoxic agent. This value means that the compound is more than ten times more cytotoxic to the tumor cell line than to normal cell line.
as §4, §7, §6

H1975 cells [5] = assay: Cell cycle analysis by flow cytometry (Guava Muse Cell Cycle Kit); type: cell-based, human; details: H1975, 48 h of treatment; CA-4 0.04 µM, LASSBio-1586 2.0 µM, LASSBio-1735 0.08 µM, LASSBio-2070 3.0 µM, LASSBio-2074 1.5 µM; vs DMSO 0.1%
Protocol: Changes in the cell cycle are important aspect in tumorigenesis. Therefore, the identification of the steps related to inhibition of cell multiplication is an important process during the discovery of new antitumoral drug candidates. […] Flow cytometry was used for cell cycle analysis to estimate the percentages of a cell population in the different phases of the cell cycle. The analysis was performed using the lung cancer cell line H1975 treated with CA-4 (1, 0.04 µM), LASSBio-1586 (2, 2.0 µM), LASSBio-1735 (3, 0.08 µM), LASSBio-2070 (10, 3.0 µM) and LASSBio-2074 (11, 1.5 µM).
as §1
as §2, with “The cells were treated with the selected compounds for 72 h.” left out

LoVo = assay: MTT cell viability assay, LoVo; type: cell-based; details: Homo sapiens, read-out: CC50 (µM) (CI) LoVo
Protocol: as §3, §4, §7, §6

| SMILES | cells with Inactivated EGFR (EGFR inactivation index) [1] [%] | CC50 (HL-60; HL-60, 48 h) [µM] | CC50 (HL-60; HL-60, 72 h) [µM] | CC50 (MCF-7) [µM] | CC50 (PC-3) [µM] | CC50 (H292; NCI-H292, 48 h) [µM] | CC50 (H292; NCI-H292, 72 h) [µM] | CC50 (H1975; NCI-H1975, 48 h) [µM] | CC50 (H1975; NCI-H1975, 72 h) [µM] | CC50 (PC-9; PC-9, 48 h) [µM] | CC50 (PC-9; PC-9, 72 h) [µM] | CC50 at 48 h [2] [µM] | cell morphology after treatment (H1975 cells [3]) | effect on microtubules (stabilizing / destabilizing profile) (H1975 cells [3]) | CC50 at 72 h [4] [µM] | cell cycle distribution (G0/G1, S, G2/M) (H1975 cells [5]) | CC50 (LoVo; 48 h) [µM] | CC50 (LoVo; 72 h) [µM] |
| --- | --- | --- | --- | --- | --- | --- | --- | --- | --- | --- | --- | --- | --- | --- | --- | --- | --- | --- |
| C=CC(=O)Nc1cc(Nc2nccc(-c3cn(C)c4ccccc34)n2)c(OC)cc1N(C)CCN(C)C [Osimertinib, reference compound] | 30 |  |  |  |  |  |  |  |  |  |  |  |  |  |  |  |  |  |
| COc1ccc(/C=C\c2cc(OC)c(OC)c(OC)c2)cc1O [CA-4 (1), Combretastatin A-4, reference compound] |  | 1.3 | 0.077 | 8.58 | 0.096 | 0.091 | 0.013 | 0.058 | 0.035 | 0.025 | 0.01 | 0.016 | rounded shape | typical response of microtubule destabilizing agents | 0.064 | increased cells in phase G2/M | 0.179 | 0.039 |
